The values that follow come from patent US12239654B2, “Compounds and methods for treating neurological and cardiovascular conditions” (Astrocyte Pharmaceuticals, Inc., priority 2016, dated 2025).

A short description of data set [1]: In vitro stability of MRS2365 in human plasma. It is filed as in vitro ADME. As for the experimental part:
(§1) Whole blood was obtained from male CD-1 mice and human volunteers at Seventh Wave Laboratories (Maryland Heights, MO). Plasma and blood samples were prepared using either EDTA (1 mM) or lithium heparin as anticoagulants.
(§2) Plasma Stability Determination: MRS2365, enalapril and procaine were solubilized in phosphate-buffered saline, pH 7.4. […] Stability incubations were initiated with the addition of MRS2365 (1 μM final concentration). Initial assessments of stability in EDTA-generated plasma utilized incubation timepoints of 0, 10, 30, 60, 120 and 240 minutes (FIGS. 3 and 4). Subsequent studies comparing EDTA- and heparin-generated plasma utilized incubation timepoints of 0, 1, 2.5, 5, 7.5, 10 and 30 minutes (FIG. 7). Additional plasma stability incubations comparing EDTA- and heparin-generated plasma were performed using timepoints of 0, 5, 10, 20, 30, 45, 60 and 90 seconds (FIG. 8). For metabolite scouting analyses, MRS2365 was incubated in heparinized human plasma at a concentration of 100 μM for 10 or 30 minutes (FIG. 9). In all studies, plasma was immediately placed in microtainer tubes, frozen on dry ice and stored at −80° C. until analysis.
(§3) The following table outlines the LC and MS/MS conditions employed (Table 11).
(§4) The calibration range for MRS2365 plasma and blood concentration standard curves was 5-5000 ng/mL. […]

Data set [2] is described as follows: In vitro stability of MRS2365 in mouse plasma. It is filed as in vitro ADME. As for the experimental part:
as §1, §2, §3, §4

For data set [3], the target named is T1, human A3 adenosine receptor (Homo sapiens, UniProt P0DMS8).
T1 construct: expressed in transfected cells; whole cells for cAMP
T1 sequence (P0DMS8 1-318): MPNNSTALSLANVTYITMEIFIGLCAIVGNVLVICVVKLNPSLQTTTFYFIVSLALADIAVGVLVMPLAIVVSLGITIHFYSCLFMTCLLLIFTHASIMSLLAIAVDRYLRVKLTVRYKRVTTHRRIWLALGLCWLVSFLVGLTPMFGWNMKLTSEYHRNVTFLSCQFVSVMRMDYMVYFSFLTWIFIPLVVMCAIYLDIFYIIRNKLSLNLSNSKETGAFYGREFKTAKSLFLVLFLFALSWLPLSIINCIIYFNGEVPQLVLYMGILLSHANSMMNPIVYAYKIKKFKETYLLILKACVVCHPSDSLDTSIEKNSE
As to the kind of experiment: cAMP accumulation at human A3 receptors expressed in CHO cells. It is filed as cell-based. As for the experimental part:
Additionally cAMP experiments were conducted at CHO cells recombinantly expressing human A3 or mouse A3 adenosine receptors, respectively.

For `CSc1nc(N)c2ncn([C@H]3[C@H](O)[C@H](O)[C@]4(COP(=O)(O)OP(=O)(O)O)C[C@H]34)c2n1` [MRS2365], the half-life at 1 μM in data set [1] (EDTA-prepared human plasma, 1 μM, incubation out to 240 minutes) was over 4 h; in data set [2] (male, CD-1, EDTA-prepared mouse plasma, 1 μM, incubation out to 240 minutes), over 4 h. Besides, the “MRS2365 concentrations in heparin-treated plasma” value is “extremely low” in data set [1] (heparin-treated human plasma, 0-90 seconds, even at 0 and 5 seconds); “extremely low” in data set [2] (heparin-treated mouse plasma, 0-90 seconds, even at 0 and 5 seconds).

For the compound `CSc1nc(N)c2ncn([C@H]3[C@H](O)[C@H](O)[C@]4(CO)C[C@H]34)c2n1` [MRS4322], in data set [3] (CHO cells stably expressing human A3R, read-out: EC50 ± SEM, Human A3R, cAMP accumulation), the EC50 was 3.63 ± 0.37 µM. Also, in data set [3] (read-out: efficacy at 100 μM concentration in % relative to maximal effect of NECA, Human A3R, 100 μM, cAMP accumulation, CHO cells), the Emax at 100 µM was 70%.

One may read the half-life as the time needed for the level to fall by half in the phase considered. A higher half-life goes with slow loss. Usually EC50 stands for the concentration at which the effect is half-maximal.
